The test system of data set [1] is P. aeruginosa ATCC 47,085. Briefly: Biofilm formation assay (crystal violet, light microscopy). The format is cell-based, Pseudomonas aeruginosa. Particulars: sub-MIC, light microscopy image. How it is done: (§1) Bacterial virulence is regulated via a quorum sensing (QS) system in an inducer/receptor manner. Diminishing bacterial virulence is an advantageous strategy to decrease the development of bacterial resistance. In this direction, anti-virulence and anti-QS activities have been explored in several studies as reviewed. The ability of P. aeruginosa or S. aureus to form biofilms was assayed in the absence or presence of tested compounds at sub-MIC. […] The experiment was conducted in triplicate and a one-way ANOVA test was employed to test the statistical significance using Graphpad Prism 8 software. The results were significant statistically where p values < 0.05. Moreover, microscopic visualization of biofilm under the effect of tested compounds was also performed by light microscopy. Representative images for the inhibitory effects on S. aureus and P. aeruginosa biofilm formation are shown (Figure 3C,D). The microscopic images show a marked reduction in both the thickness of and surface area covered by the biofilms in presence of the tested compound.
(§2) In order to evaluate the ability of the tested compounds to inhibit the biofilm formation, a strong biofilm forming P. aeruginosa ATCC 47,085 [47, 66] and S. aureus ATCC 6538 [67] strains were used. As described earlier, suspensions of tested strains were prepared from overnight cultures in TSB and their optical densities were adjusted to OD600 of 0.4 (1×10^8 CFU/mL). Aliquots of 10 μL of the suspensions were added to 1 mL amounts of fresh TSB with or without sub-MICs of tested compounds. […] The non-adherent cells were removed, the wells were washed with sterile PBS, and left to dry. The attached biofilm forming cells were fixed with methanol for 25 min and stained with 1% crystal violet for 30 min. The excess dye was washed out and the crystal violet staining adhered biofilm forming cells were eluted by glacial acetic acid (33%). The experiment was conducted in triplicate and the absorbance was measured at 590 nm. The absorbances of tested strains treated with different compounds were expressed as mean ± standard error of percentage change from untreated tested strains control. The percentages of biofilm inhibition were calculated employing the following formula: (absorbance of control—absorbance in presence of tested compounds)/absorbance of control.

Data set [2] has as its system HepG-2. Briefly: SRB cellular proliferation assay. The format is cell-based, human. As to conditions: mean ± SD (n = 3). How it is done: (§3) The pancreatic human cancer cell lines BxPC-3 and Panc-1, the human hepatocellular carcinoma (HepG-2), and the normal immortalized pancreatic cell line HPDE, that were used in this study, were obtained from the American Type Culture Collection (Rockville, USA). Cell lines were cultured and treated with the tested compounds or dimethyl sulfoxide (DMSO) as previously described. Cells were cultivated in DMEM medium (Invitrogen, Carlsbad, CA, USA), supplemented with streptomycin, penicillin and fetal bovine serum (FCS) (Invitrogen, Carlsbad, CA, USA). The sulforhodamine B (SRB) assay was employed to assess the anti-proliferative effects of tested compounds on cancer cells. Cell lines were incubated and regularly treated with DMSO or increasing doses of tested compounds for 48 h. The cells were fixed with 10% trichloroacetic acid and stained with SRB fluorescent dye for 30 min. Then, the bounded SRB dye to cellular proteins was dissolved in 10 mM Tris base after washing excess dye with 1% acetic acid. The absorbance was measured at 510 nm in a reader (Biotek, Winooski, VT, USA).

Data set [3] relates to BxPC-3. Briefly: SRB cellular proliferation assay. The format is cell-based, human. As to conditions: BxPC-3 cells, mean ± SD (n = 3). How it is done: as §3
For data set [4], the system named is Panc-1. Briefly: SRB cellular proliferation assay. Particulars: Panc-1 cells, mean ± SD (n = 3). The format is cell-based, human. How it is done: as §3
Data set [5] deals with Candida albicans ATCC 10231. Briefly: MIC by agar dilution (antifungal). The format is cell-based. The method, then:
(§4) The MICs of the synthesized compound were determined by agar dilution method according to the Clinical Laboratory and Standards Institute Guidelines (CLSI, 2015). Briefly, the tested strains were incubated overnight in tryptic soy broth (TSB) (Oxoid, United Kingdom) and then diluted in Muller–Hinton (MH) broth (Oxoid, United Kingdom) to turbidity approximating to the equivalent of 0.5 McFarland standard. The suspensions were further diluted with sterile saline (1:10) and standardized inoculums (approximately 10^4 CFU per spot) were spotted on the surfaces of MH agar (Oxoid, United Kingdom) plates containing different concentrations of tested compounds and a control plate. The MICs were the lowest concentrations that inhibit growth on the plates after incubation at 37 °C for 20 h.
For orientation: Agar dilution tests growth on a series of plates holding different concentrations.

In data set [6] the test system is Aspergillus niger ATCC 16404. The data set can be described thus: MIC by agar dilution (antifungal). The format is cell-based. The method, then: as §4
The test system of data set [7] is Staphylococcus epidermidis ATCC 12228. Briefly: MIC by agar dilution. The format is cell-based. Particulars: 20 h; for MIC: ATCC12228, 37 °C, read-out: Minimum inhibitory concentration (MIC). The method, then:
as §4

For data set [8], the system named is Salmonella typhimurium ATCC 14028. The data set can be described thus: MIC by agar dilution. The format is cell-based. As to conditions: 37 °C, 20 h; for MIC: Salmonella enterica, read-out: Minimum inhibitory concentration (MIC). The method, then: as §4
For data set [9], the system named is Staphylococcus aureus ATCC 6538. The data set can be described thus: MIC by agar dilution. The format is cell-based. As to conditions: 20 h; for MIC: ATCC6538, 37 °C, read-out: Minimum inhibitory concentration (MIC). How it is done:
as §4

Data set [10] has as its system Klebsiella pneumoniae ATCC 27736. The data set can be described thus: MIC by agar dilution. The format is cell-based. As to conditions: 20 h; for MIC: ATCC27736, 37 °C, read-out: Minimum inhibitory concentration (MIC). How it is done: as §4
The test system of data set [11] is Escherichia coli ATCC 10536. The data set can be described thus: MIC by agar dilution. The format is cell-based. As to conditions: 20 h; for MIC: ATCC10536, 37 °C, read-out: Minimum inhibitory concentration (MIC). How it is done: as §4
The subject of data set [12] is Micrococcus spp. ATCC 10240. The data set can be described thus: MIC by agar dilution. The format is cell-based. Particulars: 20 h; for MIC: ATCC10240, 37 °C, read-out: Minimum inhibitory concentration (MIC). The method, then: as §4
For data set [13], the system named is Pseudomonas aeruginosae ATCC 47085. Briefly: MIC by agar dilution. The format is cell-based, Pseudomonas aeruginosa. Particulars: 20 h; for MIC: ATCC47085, 37 °C, read-out: Minimum inhibitory concentration (MIC). The method, then:
as §4

Data set [14] concerns S. aureus ATCC 6538. Briefly: Biofilm formation assay (crystal violet, light microscopy). The format is cell-based, Staphylococcus aureus. As to conditions: sub-MIC, light microscopy image. How it is done:
as §1, §2

Data set [15] concerns HPDE. The data set can be described thus: SRB cell viability assay, normal cells. The format is cell-based. The method, then: Firstly, to determine the cell viability, HPDE cell lines were treated with all new synthesized compounds 9a–k for 96 h using sulforhodamine B (SRB) assay. All newly synthesized compounds were proven non-toxic with IC50 more than […] (Table 2).
The pancreatic human cancer cell lines BxPC-3 and Panc-1, the human hepatocellular carcinoma (HepG-2), and the normal immortalized pancreatic cell line HPDE, that were used in this study, were obtained from the American Type Culture Collection (Rockville, USA). Cell lines were cultured and treated with the tested compounds or dimethyl sulfoxide (DMSO) as previously described. Cells were cultivated in DMEM medium (Invitrogen, Carlsbad, CA, USA), supplemented with streptomycin, penicillin and fetal bovine serum (FCS) (Invitrogen, Carlsbad, CA, USA).
The sulforhodamine B (SRB) assay was employed to assess the anti-proliferative effects of tested compounds on cancer cells. Cell lines were incubated and regularly treated with DMSO or increasing doses of tested compounds for 48 h. The cells were fixed with 10% trichloroacetic acid and stained with SRB fluorescent dye for 30 min. Then, the bounded SRB dye to cellular proteins was dissolved in 10 mM Tris base after washing excess dye with 1% acetic acid. The absorbance was measured at 510 nm in a reader (Biotek, Winooski, VT, USA).

Setting [16] is: Homo sapiens, HepG2, HepG-2 cells, read-out: IC50.
Setting [17] is: ATCC16404, read-out: Minimum inhibitory concentration (MIC).

Values after ≈ are worked out from the molar mass of the structure shown. Values joined by “and” are separate entries in the source; they are usually repeats but may differ in a detail not shown here. Equal values may be shown once. Read-outs that look alike come from different tables or passages of the source.

The term IC50 denotes the concentration needed to halve the response being measured. Usually melting point stands for the temperature of the solid-liquid transition.

`Cc1ccc(S(=O)(=O)Nc2ccccc2C2=N/C(=C/c3ccc(Cl)cc3)C(=O)O2)cc1` [Compound 9e, (E)-N-(2-(4-(4-Chlorobenzylidene)-5-oxo-4,5-dihydrooxazol-2-yl)phenyl)-4-methylbenzenesulfonamide] gave a melting point of 234 to 236 °C. The “Biofilm formation, microscopic visualization” value in [1] is given as “markedly reduced”. The IC50 in [2] (setting [16]) was determined as 15 ± 2.89 µg/mL (≈ 33.2 µM). In [3] (Homo sapiens, read-out: IC50), the half-maximal inhibitory concentration (IC50) came out at 13.3 ± 1.57 µg/mL (≈ 29.3 µM). Further, the IC50 in data set [4] (Homo sapiens, read-out: IC50) was 12.2 ± 1.29 µg/mL (≈ 26.8 µM). In data set [5] (Candida albicans, ATCC10231, Candida albicans ATCC 10231, read-out: Minimum inhibitory concentration (MIC)), the MIC was determined as 8 µg/mL (≈ 17.7 µM). Further, the MIC in [6] (setting [17]) worked out at 16 µg/mL (≈ 35.3 µM). The MIC in [7] was found to be 2 µg/mL (≈ 4.42 µM). In addition, the MIC in [8] amounted to 4 µg/mL (≈ 8.83 µM). In addition, in [9], the MIC worked out at 2 µg/mL (≈ 4.42 µM). Besides, the MIC in [10] came to 2 µg/mL (≈ 4.42 µM). Further, the MIC in data set [11] was 4 µg/mL (≈ 8.83 µM). The MIC in data set [12] stood at 2 µg/mL (≈ 4.42 µM). Further, the MIC in data set [13] was 8 µg/mL (≈ 17.7 µM). Also, the “Biofilm formation, microscopic visualization” value in data set [14] is given as “markedly reduced”.
The compound `Cc1ccc(S(=O)(=O)Nc2ccccc2C2=N/C(=C/c3ccncc3)C(=O)O2)cc1` [Compound 9k, (E)-4-Methyl-N-(2-(5-oxo-4-(pyridin-4-ylmethylene)-4,5-dihydrooxazol-2-yl)phenyl)benzenesulfonamide] displayed a melting point of 210 to 212 °C. The IC50 in [2] (setting [16]) turned out to be 33.1 ± 5.12 µg/mL (≈ 78.9 µM). The IC50 in data set [3] (Homo sapiens, read-out: IC50) was found to be 7.27 ± 1.49 µg/mL (≈ 17.3 µM). In addition, the IC50 in data set [4] (Homo sapiens, read-out: IC50) was determined as 19.9 ± 3.35 µg/mL (≈ 47.4 µM). In addition, the MIC in data set [6] (ATCC16404, 20 h, read-out: Minimum inhibitory concentration (MIC)) is 16 µg/mL (≈ 38.1 µM). Also, the MIC in data set [6] (setting [17]) is above 32 µg/mL. In addition, the MIC in [7] was 4 µg/mL (≈ 9.54 µM). In data set [8], the MIC was above 32 µg/mL. Also, the MIC in [9] worked out at 4 µg/mL (≈ 9.54 µM). In addition, the MIC in data set [10] was above 32 µg/mL. In addition, in data set [11], the MIC came to 16 µg/mL (≈ 38.1 µM). The MIC in data set [12] came out at 2 µg/mL (≈ 4.77 µM). Moreover, in [15] (normal HPDE cells, read-out: IC50), the IC50 was above 50 µg/mL. Also, the MIC in [13] is above 32 µg/mL.
On to “(E)-4-Methyl-N-(2-(4-(naphthalen-1-ylmethylene)-5-oxo-4,5-dihydrooxazol-2-yl)phenyl)benzenesulfonamide [Compound 9h]”, for which the IC50 in data set [2] (HepG-2 cells) is 17.34 ± 0.96 µg/mL; in data set [3], 12.60 ± 0.62 µg/mL; in data set [4] it was 14.72 ± 2.87 µg/mL; in [15] (HPDE normal immortalized cell line, 96 h), above 50000 µg/mL. Also, the “Minimum inhibitory concentration (MIC)” value in [5] (Candida albicans ATCC 10231) was 4 µg/mL and 2 µg/mL; in data set [6], 8 µg/mL and 4 µg/mL; in [7] (37 °C) it was above 32 µg/mL; in data set [8], above 32 µg/mL; in data set [9] (37 °C), above 32 µg/mL; in data set [10] (37 °C), above 32 µg/mL. Besides, the “Minimum inhibitory concentration (MIC)” value in data set [11] (37 °C), in [12] (37 °C) and in data set [13] (37 °C) was above 32 µg/mL each time.
